Article doi:10.64898/2025.12.04.692444v1, “Calcium Dependent Protein Kinase 3 is not essential for the asexual replication of Plasmodium falciparum” (biorxiv, 2025)

Assays:
[1] = target: T1, PfCDPK3 (full-length recombinant CDPK3) (Plasmodium falciparum, UniProt Q9NJU9); assay: ADP-Glo luminescence kinase assay; type: biochemical; settings: MBP as exogenous substrate; 100 µM ATP; 5 mM CaCl2; 20 mM MgCl2; 40 mM Tris-Cl pH 7.5; 30 °C, 1 h
T1 construct: some truncated fragments
T1 sequence (Q9NJU9 1-562): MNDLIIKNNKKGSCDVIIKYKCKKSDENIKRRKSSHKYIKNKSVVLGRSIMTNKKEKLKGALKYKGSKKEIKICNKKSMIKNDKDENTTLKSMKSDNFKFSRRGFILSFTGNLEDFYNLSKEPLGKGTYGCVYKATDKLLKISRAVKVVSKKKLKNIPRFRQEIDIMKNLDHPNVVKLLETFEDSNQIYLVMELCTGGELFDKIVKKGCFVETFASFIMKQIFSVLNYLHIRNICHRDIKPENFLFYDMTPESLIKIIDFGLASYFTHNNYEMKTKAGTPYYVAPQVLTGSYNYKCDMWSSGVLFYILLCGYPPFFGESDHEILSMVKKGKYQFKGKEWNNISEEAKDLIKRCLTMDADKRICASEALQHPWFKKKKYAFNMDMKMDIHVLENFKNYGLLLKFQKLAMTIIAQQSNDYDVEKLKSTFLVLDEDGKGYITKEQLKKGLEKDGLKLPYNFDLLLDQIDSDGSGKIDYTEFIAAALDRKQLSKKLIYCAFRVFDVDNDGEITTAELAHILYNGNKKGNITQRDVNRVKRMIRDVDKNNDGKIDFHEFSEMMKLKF

[2] = target: T1, PfCDPK3 (full-length recombinant CDPK3); assay: semi-synthetic epitope tagging: thiophosphorylation, PNBM alkylation, anti-thiophosphate ester Western blot; type: biochemical; settings: GST as exogenous substrate; 100 µM ATPγS; 5 mM CaCl2; 50 mM MgCl2; 50 mM Tris; 30 °C, 2 h

Nc1ncnc2c1ncn2[C@@H]1O[C@H](COP(=O)(O)OP(=O)(O)OP(=O)(O)O)[C@@H](O)[C@H]1O [ATP]
ADP-Glo luminescence kinase assay [1]: conversion of ATP to ADP by the recombinant CDPK3, was higher in the presence of calcium

Nc1ncnc2c1ncn2[C@@H]1O[C@H](COP(=O)(O)OP(=O)(O)OP(O)(O)=S)[C@@H](O)[C@H]1O [ATPγS]
semi-synthetic epitope tagging: thiophosphorylation, PNBM alkylation, anti-thiop [2]: ATPγS, a ATP analog, containing terminal thiophosphate group was used as the source
